In patent publication US11542304B2, “Multimeric bicyclic peptide ligands” (BicycleTx Limited, priority 2018, dated 2023):
pEC50: −log10 of the molar value. Starred links: 1 amine or outer side, 2 acyl side, 3 side chain; linkers in the order of their positions; H or OH if unused. Positions of bridges follow the written chain, without caps; N, C: chain ends. Non-standard residues stand in square brackets, D forms with d. Chains are numbered I, II in the order given. X2 = O=C(CCOCCN(CCOCCC(=O)NCCOCCOCCOCCOCCOCCOCCOCCOCCOCCOCCOCCOCCOCCOCCOCCOCCOCCOCCOCCOCCOCCOCCOCCn1nnc2c1CCC1C(CC2)C1COC(=O)[*:2])CCOCCC(=O)NCCOCCOCCOCCOCCOCCOCCOCCOCCOCCOCCOCCOCCOCCOCCOCCOCCOCCOCCOCCOCCOCCOCCOCCn1nnc2c1CCC1C(CC2)C1COC(=O)[*:3])NCCOCCOCCOCCOCCOCCOCCOCCOCCOCCOCCOCCOCCOCCOCCOCCOCCOCCOCCOCCOCCOCCOCCOCCn1nnc2c1CCC1C(CC2)C1COC(=O)[*:1]; X3 = O=C(CCOCCN(CCOCCC(=O)NCCOCCOCCOCCOCCOCCOCCOCCOCCOCCOCCn1nnc2c1CCC1C(CC2)C1COC(=O)[*:2])CCOCCC(=O)NCCOCCOCCOCCOCCOCCOCCOCCOCCOCCOCCn1nnc2c1CCC1C(CC2)C1COC(=O)[*:3])NCCOCCOCCOCCOCCOCCOCCOCCOCCOCCOCCn1nnc2c1CCC1C(CC2)C1COC(=O)[*:1]; TATA = O=C(CC[*:1])N1CN(C(=O)CC[*:2])CN(C(=O)CC[*:3])C1; Nle = CCCC[C@H](N)C(=O)O

Key:
[1] = target: CD137 (Homo sapiens, UniProt Q07011); assay: CD137 Promega reporter cell activity assay (NF-κB luciferase in Jurkat cells); details: for Average Fold EC50 Improvement relative to CD137L: Average EC50 for CD137L = 14.2 nM; for Average Relative Fold Induction relative to CD137L: Average fold induction for CD137L = 4.0
[2] = clinical testing; cited from earlier work

Sequence of CD137 (Q07011 24-255): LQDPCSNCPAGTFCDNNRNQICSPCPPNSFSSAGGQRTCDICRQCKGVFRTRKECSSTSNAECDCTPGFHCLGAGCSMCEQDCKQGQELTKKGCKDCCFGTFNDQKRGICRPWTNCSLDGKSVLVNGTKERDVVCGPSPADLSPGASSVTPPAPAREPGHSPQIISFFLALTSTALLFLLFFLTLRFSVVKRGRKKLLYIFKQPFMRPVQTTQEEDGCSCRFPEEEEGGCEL

| Molecule | Average Fold EC50 Improvement relative to CD137L [1] | Average Relative Fold Induction relative to CD137L [1] | other results |
| --- | --- | --- | --- |
| CCCC[C@@H]1NC(=O)[C@H](Cc2ccc(O)cc2)NC(=O)[C@@H]2CCCN2C(=O)[C@H](CC(=O)O)NC(=O)[C@H](C)NC(=O)[C@H](CCCCNC(=O)OCC2C3CCc4nnn(CCOCCOCCOCCOCCOCCOCCOCCOCCOCCOCCOCCOCCOCCOCCOCCOCCOCCOCCOCCOCCOCCOCCOCCNC(=O)CCOCC(COCCC(=O)NCCOCCOCCOCCOCCOCCOCCOCCOCCOCCOCCOCCOCCOCCOCCOCCOCCOCCOCCOCCOCCOCCOCCOCCn5nnc6c5CCC5C(CC6)C5COC(=O)NCCCC[C@@H]5NC(=O)[C@@H]6CSCCC(=O)N7CN(CN(C7)C(=O)CCSC[C@@H](C(=O)N[C@@H](C)C(N)=O)NC(=O)[C@H](CCCC)NC(=O)[C@H](Cc7ccc(O)cc7)NC(=O)[C@@H]7CCCN7C(=O)[C@H](CC(=O)O)NC(=O)[C@H](C)NC5=O)C(=O)CCSC[C@H](NC(=O)[C@H](C)NC(C)=O)C(=O)N[C@@H]([C@@H](C)CC)C(=O)N[C@@H](CCC(=O)O)C(=O)N[C@@H](CCC(=O)O)C(=O)NCC(=O)N[C@@H](CCC(N)=O)C(=O)N[C@@H](Cc5ccc(O)cc5)C(=O)N6)(COCCC(=O)NCCOCCOCCOCCOCCOCCOCCOCCOCCOCCOCCOCCOCCOCCOCCOCCOCCOCCOCCOCCOCCOCCOCCOCCn5nnc6c5CCC5C(CC6)C5COC(=O)NCCCC[C@@H]5NC(=O)[C@@H]6CSCCC(=O)N7CN(CN(C7)C(=O)CCSC[C@@H](C(=O)N[C@@H](C)C(N)=O)NC(=O)[C@H](CCCC)NC(=O)[C@H](Cc7ccc(O)cc7)NC(=O)[C@@H]7CCCN7C(=O)[C@H](CC(=O)O)NC(=O)[C@H](C)NC5=O)C(=O)CCSC[C@H](NC(=O)[C@H](C)NC(C)=O)C(=O)N[C@@H]([C@@H](C)CC)C(=O)N[C@@H](CCC(=O)O)C(=O)N[C@@H](CCC(=O)O)C(=O)NCC(=O)N[C@@H](CCC(N)=O)C(=O)N[C@@H](Cc5ccc(O)cc5)C(=O)N6)COCCC(=O)NCCOCCOCCOCCOCCOCCOCCOCCOCCOCCOCCOCCOCCOCCOCCOCCOCCOCCOCCOCCOCCOCCOCCOCCn5nnc6c5CCC5C(CC6)C5COC(=O)NCCCC[C@@H]5NC(=O)[C@@H]6CSCCC(=O)N7CN(CN(C7)C(=O)CCSC[C@@H](C(=O)N[C@@H](C)C(N)=O)NC(=O)[C@H](CCCC)NC(=O)[C@H](Cc7ccc(O)cc7)NC(=O)[C@@H]7CCCN7C(=O)[C@H](CC(=O)O)NC(=O)[C@H](C)NC5=O)C(=O)CCSC[C@H](NC(=O)[C@H](C)NC(C)=O)C(=O)N[C@@H]([C@@H](C)CC)C(=O)N[C@@H](CCC(=O)O)C(=O)N[C@@H](CCC(=O)O)C(=O)NCC(=O)N[C@@H](CCC(N)=O)C(=O)N[C@@H](Cc5ccc(O)cc5)C(=O)N6)c4CCC32)NC(=O)[C@@H]2CSCCC(=O)N3CN(CN(C3)C(=O)CCSC[C@@H](C(=O)N[C@@H](C)C(N)=O)NC1=O)C(=O)CCSC[C@H](NC(=O)[C@H](C)NC(C)=O)C(=O)N[C@@H]([C@@H](C)CC)C(=O)N[C@@H](CCC(=O)O)C(=O)N[C@@H](CCC(=O)O)C(=O)NCC(=O)N[C@@H](CCC(N)=O)C(=O)N[C@@H](Cc1ccc(O)cc1)C(=O)N2 (some centres unmarked) [BCY8148] | 18.71 | 1.20 | – |
| CCCC[C@@H]1NC(=O)[C@H](Cc2ccc(O)cc2)NC(=O)[C@@H]2CCCN2C(=O)[C@H](CC(=O)O)NC(=O)[C@H](C)NC(=O)[C@H](Cc2ccccc2)NC(=O)[C@@H]2CSCCC(=O)N3CN(CN(C3)C(=O)CCSC[C@@H](C(=O)N[C@@H](C)C(N)=O)NC1=O)C(=O)CCSC[C@H](NC(=O)[C@H](C)NC(=O)OCC1C3CCc4nnn(CCOCCOCCOCCOCCOCCOCCOCCOCCOCCOCCOCCOCCOCCOCCOCCOCCOCCOCCOCCOCCOCCOCCOCCNC(=O)CCOCC(COCCC(=O)NCCOCCOCCOCCOCCOCCOCCOCCOCCOCCOCCOCCOCCOCCOCCOCCOCCOCCOCCOCCOCCOCCOCCOCCn5nnc6c5CCC5C(CC6)C5COC(=O)N[C@@H](C)C(=O)N[C@H]5CSCCC(=O)N6CN7CN(C6)C(=O)CCSC[C@H](NC(=O)[C@H](Cc6ccc(O)cc6)NC(=O)[C@H](CCC(N)=O)NC(=O)CNC(=O)[C@H](CCC(=O)O)NC(=O)[C@H](CCC(=O)O)NC(=O)[C@H]([C@@H](C)CC)NC5=O)C(=O)N[C@@H](Cc5ccccc5)C(=O)N[C@@H](C)C(=O)N[C@@H](CC(=O)O)C(=O)N5CCC[C@H]5C(=O)N[C@@H](Cc5ccc(O)cc5)C(=O)N[C@@H](CCCC)C(=O)N[C@H](C(=O)N[C@@H](C)C(N)=O)CSCCC7=O)(COCCC(=O)NCCOCCOCCOCCOCCOCCOCCOCCOCCOCCOCCOCCOCCOCCOCCOCCOCCOCCOCCOCCOCCOCCOCCOCCn5nnc6c5CCC5C(CC6)C5COC(=O)N[C@@H](C)C(=O)N[C@H]5CSCCC(=O)N6CN7CN(C6)C(=O)CCSC[C@H](NC(=O)[C@H](Cc6ccc(O)cc6)NC(=O)[C@H](CCC(N)=O)NC(=O)CNC(=O)[C@H](CCC(=O)O)NC(=O)[C@H](CCC(=O)O)NC(=O)[C@H]([C@@H](C)CC)NC5=O)C(=O)N[C@@H](Cc5ccccc5)C(=O)N[C@@H](C)C(=O)N[C@@H](CC(=O)O)C(=O)N5CCC[C@H]5C(=O)N[C@@H](Cc5ccc(O)cc5)C(=O)N[C@@H](CCCC)C(=O)N[C@H](C(=O)N[C@@H](C)C(N)=O)CSCCC7=O)COCCC(=O)NCCOCCOCCOCCOCCOCCOCCOCCOCCOCCOCCOCCOCCOCCOCCOCCOCCOCCOCCOCCOCCOCCOCCOCCn5nnc6c5CCC5C(CC6)C5COC(=O)N[C@@H](C)C(=O)N[C@H]5CSCCC(=O)N6CN7CN(C6)C(=O)CCSC[C@H](NC(=O)[C@H](Cc6ccc(O)cc6)NC(=O)[C@H](CCC(N)=O)NC(=O)CNC(=O)[C@H](CCC(=O)O)NC(=O)[C@H](CCC(=O)O)NC(=O)[C@H]([C@@H](C)CC)NC5=O)C(=O)N[C@@H](Cc5ccccc5)C(=O)N[C@@H](C)C(=O)N[C@@H](CC(=O)O)C(=O)N5CCC[C@H]5C(=O)N[C@@H](Cc5ccc(O)cc5)C(=O)N[C@@H](CCCC)C(=O)N[C@H](C(=O)N[C@@H](C)C(N)=O)CSCCC7=O)c4CCC31)C(=O)N[C@@H]([C@@H](C)CC)C(=O)N[C@@H](CCC(=O)O)C(=O)N[C@@H](CCC(=O)O)C(=O)NCC(=O)N[C@@H](CCC(N)=O)C(=O)N[C@@H](Cc1ccc(O)cc1)C(=O)N2 (some centres unmarked) [BCY8149] | 140.06 | 0.93 | – |
| CCCC[C@@H]1NC(=O)[C@H](Cc2ccc(O)cc2)NC(=O)[C@@H]2CCCN2C(=O)[C@H](CC(=O)O)NC(=O)[C@H](C)NC(=O)[C@H](Cc2ccccc2)NC(=O)[C@@H]2CSCCC(=O)N3CN(CN(C3)C(=O)CCSC[C@@H](C(=O)N[C@@H](C)C(N)=O)NC1=O)C(=O)CCSC[C@H](NC(=O)[C@H](C)NC(C)=O)C(=O)N[C@@H]([C@@H](C)CC)C(=O)N[C@@H](CCC(=O)O)C(=O)N[C@@H](CCCCNC(=O)OCC1C3CCc4nnn(CCOCCOCCOCCOCCOCCOCCOCCOCCOCCOCCNC(=O)CCOCC(COCCC(=O)NCCOCCOCCOCCOCCOCCOCCOCCOCCOCCOCCn5nnc6c5CCC5C(CC6)C5COC(=O)NCCCC[C@@H]5NC(=O)[C@H](CCC(=O)O)NC(=O)[C@H]([C@@H](C)CC)NC(=O)[C@@H](NC(=O)[C@H](C)NC(C)=O)CSCCC(=O)N6CN7CN(C6)C(=O)CCSC[C@H](NC(=O)[C@H](Cc6ccc(O)cc6)NC(=O)[C@H](CCC(N)=O)NC(=O)CNC5=O)C(=O)N[C@@H](Cc5ccccc5)C(=O)N[C@@H](C)C(=O)N[C@@H](CC(=O)O)C(=O)N5CCC[C@H]5C(=O)N[C@@H](Cc5ccc(O)cc5)C(=O)N[C@@H](CCCC)C(=O)N[C@H](C(=O)N[C@@H](C)C(N)=O)CSCCC7=O)(COCCC(=O)NCCOCCOCCOCCOCCOCCOCCOCCOCCOCCOCCn5nnc6c5CCC5C(CC6)C5COC(=O)NCCCC[C@@H]5NC(=O)[C@H](CCC(=O)O)NC(=O)[C@H]([C@@H](C)CC)NC(=O)[C@@H](NC(=O)[C@H](C)NC(C)=O)CSCCC(=O)N6CN7CN(C6)C(=O)CCSC[C@H](NC(=O)[C@H](Cc6ccc(O)cc6)NC(=O)[C@H](CCC(N)=O)NC(=O)CNC5=O)C(=O)N[C@@H](Cc5ccccc5)C(=O)N[C@@H](C)C(=O)N[C@@H](CC(=O)O)C(=O)N5CCC[C@H]5C(=O)N[C@@H](Cc5ccc(O)cc5)C(=O)N[C@@H](CCCC)C(=O)N[C@H](C(=O)N[C@@H](C)C(N)=O)CSCCC7=O)COCCC(=O)NCCOCCOCCOCCOCCOCCOCCOCCOCCOCCOCCn5nnc6c5CCC5C(CC6)C5COC(=O)NCCCC[C@@H]5NC(=O)[C@H](CCC(=O)O)NC(=O)[C@H]([C@@H](C)CC)NC(=O)[C@@H](NC(=O)[C@H](C)NC(C)=O)CSCCC(=O)N6CN7CN(C6)C(=O)CCSC[C@H](NC(=O)[C@H](Cc6ccc(O)cc6)NC(=O)[C@H](CCC(N)=O)NC(=O)CNC5=O)C(=O)N[C@@H](Cc5ccccc5)C(=O)N[C@@H](C)C(=O)N[C@@H](CC(=O)O)C(=O)N5CCC[C@H]5C(=O)N[C@@H](Cc5ccc(O)cc5)C(=O)N[C@@H](CCCC)C(=O)N[C@H](C(=O)N[C@@H](C)C(N)=O)CSCCC7=O)c4CCC31)C(=O)NCC(=O)N[C@@H](CCC(N)=O)C(=O)N[C@@H](Cc1ccc(O)cc1)C(=O)N2 (some centres unmarked) [BCY8150] | 4.14 | 0.77 | – |
| ACIEEGQYCFADPYMCA [BCY592, reference compound] | – | – | CD137 agonism / activation in reporter cells (in words) ([1]; FIGS. 1 to 3 and 15): no detectable activity |
| CD137L: the natural ligand (CD137L) for activation of CD137 | – | – | pEC50 ([1]; read-out: Average EC50, reference substance of Table 4A / 4B): 7.85; Average fold induction ([1]; reference substance of Table 4A / 4B): **Average fold induction for CD137L = 4.0 |
| I: Ac-ACIEEGKYCFADPY[Nle]CA-NH2 / II: Ac-ACIEEGKYCFADPY[Nle]CA-NH2 / III: Ac-ACIEEGKYCFADPY[Nle]CA-NH2 (linker I:2-I:9-I:16, II:2-II:9-II:16, III:2-III:9-III:16 via TATA; linker I:7-II:7-III:7 via X3) [BCY8151] | 213.05 | 0.49 | – |
| I: Ac-ACIEEGQYCKADPY[Nle]CA-NH2 / II: Ac-ACIEEGQYCKADPY[Nle]CA-NH2 / III: Ac-ACIEEGQYCKADPY[Nle]CA-NH2 (linker I:2-I:9-I:16, II:2-II:9-II:16, III:2-III:9-III:16 via TATA; linker I:10-II:10-III:10 via X2) [BCY8146] | 5.11 | 0.83 | – |
| I: Ac-ACIEEGQYCKADPY[Nle]CA-NH2 / II: Ac-ACIEEGQYCKADPY[Nle]CA-NH2 / III: Ac-ACIEEGQYCKADPY[Nle]CA-NH2 (linker I:2-I:9-I:16, II:2-II:9-II:16, III:2-III:9-III:16 via TATA; linker I:10-II:10-III:10 via X3) [BCY8145] | 5.93 | 0.95 | – |
| urelumab | – | – | doses at which hepatoxicity was observed [2]: ≥ 1 mg/kg; single agent activity [2]: single agent, partial responses in melanoma |
